Article PMC7413516, “Antidepressant-like activity and safety profile evaluation of 1H-imidazo[2,1-f]purine-2,4(3H,8H)-dione derivatives as 5-HT1A receptor partial agonists” (PLoS ONE, 2020)
Several values for one entry are separate records, joined by “and”; a condition that tells them apart may be missing. Identical values can stand only once. Entries after “also recorded” stand apart in the source; their conditions may differ.

What was measured:
PDE4B = tested on: PDE4B; design: method as in PMID 27353547; conditions: in vitro, bioluminescent detection system; ref [8]; cited from earlier work
PDE10A = tested on: PDE10A; design: method as in PMID 27353547; conditions: in vitro, bioluminescent detection system; ref [8]; cited from earlier work
mice = test: Spontaneous activity monitoring (RFID TraffiCage, 18 h); assay type: in vivo, Swiss albino mice; conditions: for Mean counts, spontaneous activity: 0.625 mg/kg
Method: (§1) The Swiss albino mice were used in the experiment. AZ-853 and AZ-861 were injected once daily for 16 consecutive days. On the 1st and 15th day the administration of the compounds, 18-h spontaneous animal activity was registered (see below). FST, as described earlier, was performed on the 14th day just before the next treatment. To ensure that the effects observed in FST are not the result of increased motility of animals, on the 13th day, just before the next administration, the locomotor activity was measured as described earlier, from 2 to 6 min after test start, i.e. in the period identical to the duration of FST. Blood and organ collection was performed on the 17th day at 24 h after the last dose and fasting.
The spontaneous activity of the mice was measured on the 1st and 15th day of the treatment with a special, innovative radiofrequency identification system (RFID-system)—TraffiCage (TSE-Systems, Germany). The test was conducted according to the method described in the literature. The animals had the transmitter (RFID) subcutaneously implanted, which tracked the time they spent in different areas of the cage. The data obtained were then grouped in a special computer program.

[1] = Body weight measurement in the 17-day experiment; assay type: in vivo, Swiss albino mice; conditions: for body weight Mean / body weight: mouse, 0.625 mg/kg
Method: as §1
The body weight was measured daily immediately prior to administration of the drugs. On the 17th day, the blood was collected from the Swiss albino mice sacrificed by decapitation 20 min after i.p. administration of heparin (2500 units/mouse) and then centrifuged at 600 × g (15 min, 4°C) to separate plasma. The liver, heart, and kidney were also collected and weighed.

human serotonin 5-HT1AR = target: T1, human serotonin 5-HT1AR (Homo sapiens, UniProt P08908); test: cAMP inhibition (LANCE Ultra cAMP, forskolin-stimulated CHO-K1 cells)
T1 sequence (P08908 1-422): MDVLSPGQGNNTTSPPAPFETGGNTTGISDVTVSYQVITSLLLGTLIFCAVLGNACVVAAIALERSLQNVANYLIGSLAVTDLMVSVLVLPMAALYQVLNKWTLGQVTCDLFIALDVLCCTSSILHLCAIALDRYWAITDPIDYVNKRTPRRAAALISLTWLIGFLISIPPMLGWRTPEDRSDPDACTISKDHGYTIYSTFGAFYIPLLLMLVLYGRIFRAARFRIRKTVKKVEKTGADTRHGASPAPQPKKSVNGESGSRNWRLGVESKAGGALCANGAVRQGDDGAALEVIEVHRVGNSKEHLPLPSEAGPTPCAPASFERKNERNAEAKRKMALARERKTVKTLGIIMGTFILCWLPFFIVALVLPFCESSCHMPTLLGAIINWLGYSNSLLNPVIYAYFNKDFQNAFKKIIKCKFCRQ
Method: CHO-K1 cell line transfected with 5-HT1A receptor, were commercially obtained from Perkin Elmer (Cat. No. ES-310-C, Lot Number M2W-C1). Cells were cultured according to manufacturer’s instruction.
The cells were cultured under selective conditions (400 μg/mL Geneticin G418). Thawed cells were resuspended in stimulation buffer (HBSS, 5 mM HEPES, 0.5 IBMX, and 0.1% BSA at pH 7.4) at 2 × 10^5 cells/mL. The same volume (10 μL) of cell suspension was added to tested compounds with 10 μM forskolin. Cell stimulation was performed for 40 min at room temperature. After incubation, cAMP measurements were performed with homogeneous TR-FRET immunoassay using the LANCE Ultra cAMP kit (PerkinElmer, USA) according to the manufacturer’s instruction (PerkinElmer). The TR-FRET signal was read on an EnVision microplate reader (PerkinElmer, USA).

5-HT1AR = tested on: 5-HT1AR; design: method as in PMID 27353547; conditions: CHO-K1 cells, Ca2+ mobilisation; ref [8]; read-out: Kb, 5-HT1AR antagonist; cited from earlier work
[2] = 18-h monitoring, AZ-853 0.625, AZ-861 1.25 mg/kg b.w./day

Cn1c(=O)c2c(nc3n(CCCCN4CCN(c5ccccc5F)CC4)ccn23)n(C)c1=O [AZ-853, 8-(4-(4-(2-fluorophenyl)piperazin-1-yl)butyl)-1,3-dimethyl-1H-imidazo[2,1-f]purine-2,4(3H,8H)-dione]
PDE4B inhibitory activity (PDE4B): did not induce PDE4B and PDE10A inhibitory activity
PDE10A inhibitory activity (PDE10A): did not induce PDE4B and PDE10A inhibitory activity
spontaneous activity after the 1st administration vs. control (mice; [2]): increased spontaneous activity in the 1st, 7th, 12th and 13th hour
spontaneous activity after the 15th administration vs. control (mice; [2]): significant increase in activity was observed only in the 1st hour; also recorded: in the 4th, 7th and 9th hour after administration, a significant reduction in spontaneous activity
Mean counts, spontaneous activity (mice; after 1st administration, 1 h after administration): 422.3 counts
Mean counts, spontaneous activity (mice; after 1st administration, 2 h after administration): 229.6 counts
Mean counts, spontaneous activity (mice; after 1st administration, 3 h after administration): 213.6 counts
Mean counts, spontaneous activity (mice; after 1st administration, 4 h after administration): 200.4 counts
Mean counts, spontaneous activity (mice; after 1st administration, 5 h after administration): 179.9 counts
Mean counts, spontaneous activity (mice; after 1st administration, 6 h after administration): 236.7 counts
Mean counts, spontaneous activity (mice; after 1st administration, 7 h after administration): 254.4 counts
Mean counts, spontaneous activity (mice; after 1st administration, 8 h after administration): 265.9 counts
Mean counts, spontaneous activity (mice; after 1st administration, 9 h after administration): 189.1 counts
Mean counts, spontaneous activity (mice; after 1st administration, 10 h after administration): 250.4 counts
Mean counts, spontaneous activity (mice; after 1st administration, 11 h after administration): 226.9 counts
Mean counts, spontaneous activity (mice; after 1st administration, 12 h after administration): 397.9 counts
Mean counts, spontaneous activity (mice; after 1st administration, 13 h after administration): 346.3 counts
Mean counts, spontaneous activity (mice; after 1st administration, 14 h after administration): 365.0 counts
Mean counts, spontaneous activity (mice; after 1st administration, 15 h after administration): 380.1 counts
Mean counts, spontaneous activity (mice; after 1st administration, 16 h after administration): 407.7 counts
Mean counts, spontaneous activity (mice; after 1st administration, 17 h after administration): 351.3 counts
Mean counts, spontaneous activity (mice; after 1st administration, 18 h after administration): 351.3 counts
Mean counts, spontaneous activity (mice; after 15th administration, 1 h after administration): 324.3 counts
Mean counts, spontaneous activity (mice; after 15th administration, 2 h after administration): 152.7 counts
Mean counts, spontaneous activity (mice; after 15th administration, 3 h after administration): 148.6 counts
Mean counts, spontaneous activity (mice; after 15th administration, 4 h after administration): 120.0 counts
Mean counts, spontaneous activity (mice; after 15th administration, 5 h after administration): 166.6 counts
Mean counts, spontaneous activity (mice; after 15th administration, 6 h after administration): 110.9 counts
Mean counts, spontaneous activity (mice; after 15th administration, 7 h after administration): 134.7 counts
Mean counts, spontaneous activity (mice; after 15th administration, 8 h after administration): 144.6 counts
Mean counts, spontaneous activity (mice; after 15th administration, 9 h after administration): 138.1 counts
Mean counts, spontaneous activity (mice; after 15th administration, 10 h after administration): 272.4 counts
Mean counts, spontaneous activity (mice; after 15th administration, 11 h after administration): 256.9 counts
Mean counts, spontaneous activity (mice; after 15th administration, 12 h after administration): 347.2 counts
Mean counts, spontaneous activity (mice; after 15th administration, 13 h after administration): 396.8 counts
Mean counts, spontaneous activity (mice; after 15th administration, 14 h after administration): 307.7 counts
Mean counts, spontaneous activity (mice; after 15th administration, 15 h after administration): 281.8 counts
Mean counts, spontaneous activity (mice; after 15th administration, 16 h after administration): 249.2 counts
Mean counts, spontaneous activity (mice; after 15th administration, 17 h after administration): 304.0 counts
Mean counts, spontaneous activity (mice; after 15th administration, 18 h after administration): 356.3 counts
effect on body weight ([1]; mice, repeated i.p. once daily, AZ-853 0.625 mg/kg (from 10th day), AZ-861 1.25 mg/kg (2nd, 3rd, 4th day)): slight but significant increase in body weight
body weight Mean ([1]; day 1, group mean): 23.45 g
body weight ([1]; day 1, individual mouse): 24.7 g (2×) and 22.9 g and 21.9 g and 25.0 g and 23.8 g and 23.0 g and 21.7 g (2×) and 25.1 g
body weight Mean ([1]; day 2, group mean): 23.55 g
body weight ([1]; day 2, individual mouse): 24.9 g and 23.5 g and 24.2 g and 22.6 g and 24.5 g and 23.3 g and 22.7 g and 21.2 g and 22.0 g and 26.6 g
body weight Mean ([1]; day 3, group mean): 23.90 g
body weight ([1]; day 3, individual mouse): 25.0 g (2×) and 24.0 g (3×) and 23.0 g (2×) and 22.0 g (2×) and 27.0 g
body weight Mean ([1]; day 4, group mean): 23.70 g
body weight ([1]; day 4, individual mouse): 24.0 g (4×) and 25.0 g and 22.0 g (3×) and 23.0 g and 27.0 g
body weight Mean ([1]; day 5, group mean): 23.80 g
body weight ([1]; day 5, individual mouse): 23.3 g and 23.8 g and 24.9 g and 22.7 g and 24.6 g and 23.7 g and 23.6 g and 22.2 g and 22.8 g and 26.4 g
body weight Mean ([1]; day 6, group mean): 23.85 g
body weight ([1]; day 6, individual mouse): 24.2 g and 23.2 g and 24.4 g and 22.9 g and 24.7 g and 23.9 g and 23.5 g and 21.9 g and 23.4 g and 26.4 g
body weight Mean ([1]; day 7, group mean): 24.10 g
body weight ([1]; day 7, individual mouse): 24.0 g (4×) and 25.0 g (2×) and 23.0 g (3×) and 26.0 g
body weight Mean ([1]; day 8, group mean): 24.50 g
body weight ([1]; day 8, individual mouse): 25.0 g (2×) and 26.0 g (3×) and 23.0 g (3×) and 24.0 g (2×)
body weight Mean ([1]; day 9, group mean): 25.00 g
body weight ([1]; day 9, individual mouse): 25.0 g (2×) and 26.0 g (2×) and 27.0 g (2×) and 23.0 g (2×) and 24.0 g (2×)
body weight Mean ([1]; day 10, group mean): 25.14 g
body weight ([1]; day 10, individual mouse): 25.4 g and 24.9 g and 26.7 g and 23.8 g and 25.2 g and 24.3 g and 24.0 g and 23.7 g and 25.7 g and 27.7 g
body weight Mean ([1]; day 11, group mean): 24.68 g
body weight Mean ([1]; day 12, group mean): 25.52 g
body weight Mean ([1]; day 13, group mean): 25.54 g
body weight Mean ([1]; day 14, group mean): 25.91 g
body weight Mean ([1]; day 15, group mean): 26.09 g
EC50 (human serotonin 5-HT1AR): 15.8 nM
Emax (human serotonin 5-HT1AR; CHO-K1, read-out: Emax (%) ± SEM, agonist mode): 43 ± 0.5%
lower efficacy than 5-HT (human serotonin 5-HT1AR; cAMP inhibition): 2.3 fold
lower potency than 5-HT (human serotonin 5-HT1AR; cAMP inhibition): 1.4 fold
Kb (5-HT1AR): 2.7 nM
